From patent publication US7033829B2, “Method to inhibit cell growth using oligonucleotides” (Trustees of Boston University, priority 2000, dated 2006)
Oligonucleotides are written 5' to 3', each unit as a sugar letter and its base; * is a phosphorothioate linkage, no mark a phosphodiester; rarer units and linkages stand in square brackets, end groups in braces. Plain capitals give the bases only. d = 2'-deoxy (DNA); {P} = phosphate

What was measured:
Jurkat cells = assay: FACS cell cycle / apoptosis analysis of Jurkat cells; assay type: cell-based, human; settings: for cell cycle profile: 0.4 μM; for apoptosis in human T cells: summary of Example 13; for cells accumulated in the S-phase: 5 μM, within 72 hours (diluent 36%)
Method: Oligonucleotides homologous to the telomere overhang repeat sequence (TTAGGG; SEQ ID NO:11), sequence (11mer-1: pGTTAGGGTTAG; SEQ ID NO: 5), complementary to this sequence (11mer-2: pCTAACCCTAAC; SEQ ID NO: 9) and unrelated to the telomere sequence (11mer-3: pGATCGATCGAT; SEQ ID NO: 10) were added to cultures of Jurkat cells, a line of human T cells, one of the cell types reported to undergo apoptosis in response to telomere disruption. Within 48 hours, 50% of the cells treated with 40 μM of SEQ ID NO: 5 had accumulated in the S phase, compared to 25–30% for control cells (p<0.0003, non-paired t-test; see FIGS. 19A–19D), and by 72 hours, 13% of these cells were apoptotic as determined by a sub-G0/G1 DNA content, compared to 2–3% of controls (p<0.007, non-paired t-test; see FIGS. 19E–19H). At 96 hours, 20±3% of the 11mer-1 treated cells were apoptotic compared with 3–5% of controls (p<0.0001, non-paired t-test). To exclude preferential uptake of the 11mer-1 as an explanation of its singular effects, Jurkat cells were treated with oligonucleotides labeled on the 3′ end with fluorescein phosphoramidite, then subjected to confocal microscopy and FACS analysis. The fluorescence intensity of the cells was the same after all treatments at 4 hours and 24 hours.
Three DNA oligonucleotides were designed initially: one homologous to the telomere overhang (11mer-1: pGTTAGGGTTAG; SEQ ID NO:5), one complementary to this sequence (11mer-2: pCTAACCCTAAC; SEQ ID NO:9) and one unrelated (11mer-3: pGATCGATCGAT; SEQ ID NO:10). For later experiments, additional 11 base oligonucleotides were designed: one a simple permutation of 11mer-1 (pGGGTTAGGGTT; SEQ ID NO:13), one with the same number of G residues but roughly 50% rather than 100% homology to the overhang (pTAGATGTGGTG; SEQ ID NO:14), and one with roughly 50% overhang homology but also containing cytosine bases (pCGGGCTTATTG; SEQ ID NO:15) (Midland Certified Reagent Company, Midland, Tex.). Cell Sources and Culture Human neonatal fibroblasts were established and cultured as previously described (Eller, M. S., et al., 1997, Proc Natl Acad Sci USA 94: 12627–12632). Fibroblasts from a Nijmegen breakage syndrome (NBS) patient (#GM07166) and an age-matched control (GM03399) were purchased from the NIGMS Human Cell Repository, Coriell Institute for Medical Research, Camden, N.J.) and cultured in DMEM/15% FBS. Saos-2 cells were purchased from the American Type Culture Collection (ATCC; Manassas, Va.). SCC12F cells were the kind gift of Dr. James Rheinwald, Harvard University. Cell Cycle Analysis The established line of human T lymphocytes, termed Jurkat cells (180,000 cells/ml) were plated in RPMI medium 1640 supplemented with 3% FBS (both from GIBCO/BRL, Gaithersburg, Md.). […] Cells were collected up to 96 hours after treatment, stained with propidium iodide and analyzed by FACS using a Becton-Dickinson FacsScan and CellQuest software. Caspase Activity
Oligonucleotides homologous to the 3′ overhang sequence (11mer-1: pGTTAGGGTTAG; SEQ ID NO:5), complementary to this sequence (11mer-2: pCTAACCCTAAC; SEQ ID NO:9) and unrelated to the telomere sequence (11mer-3: pGATCGATCGAT; SEQ ID NO:10) were synthesized. The three 11mer oligonucleotides were added to cultures of Jurkat cells, an established line of human T lymphocytes, a cell type reported to undergo apoptosis in response to telomere disruption [Karlseder, J., et al, (1999) Science 283, 1321–1325] and DNA damaging ionizing radiation (IR) [Vigorito, E., et al, (1999), Hematol Cell Ther 41, 153–161]. Duplicate cultures of Jurkat cells were treated with a final concentration of 40 μM 11mer-1, -2 or -3, oligonucleotides, or an equal volume of diluent (water) as a control. Cells were collected up to 96 hours after treatment, stained with propidium iodideandanalyzed by FACS. See also Example 13 and FIGS. 19A–19H.
To further confirm the specificity of these responses to the telomere overhang sequence, three variations were tested. […]

[1] = system: normal (control) fibroblasts; assay: FACS analysis of normal (control) fibroblasts; assay type: cell-based, human; settings: 40 μM
Method: Fibroblasts were obtained from an NBS (Nijmegen breakage syndrome) patient, in which p95/Nbs1 was below the level of detection. Preconfluent cultures or normal (control) fibroblasts and NBS fibroblasts were treated with 40 μM of the oligonucleotides and collected after 48 hours for FACS analysis (FIGS. 34A–34H). The averages and standard deviations were calculated from triplicate cultures of each condition. FACS profiles from one representative experiment of three are shown.

Substance	cell cycle profile (Jurkat cells; 96 hours)	apoptosis (sub-G0/G1 peak) (Jurkat cells; 40 μM, 96 hours)	apoptosis in human T cells (Jurkat cells)	S phase growth arrest [1]	cells accumulated in the S-phase (Jurkat cells) [%]	treated cells in the S-phase (Jurkat cells; 20 μM, 72 hours) [%]	other results
11mer-1-S: phosphorothioate 11mer-1 (dG*dT*dT*dA*dG*dG*dG*dT*dT*dA*dG; further chemistry not fully specified)	neither of the oligonucleotides affected	had no effect					
pCTAACCCTAAC (DNA, 5' {P}, backbone not given here) [SEQ ID NO: 9, reference compound]			did not significantly increase apoptosis	unaffected			
pGATCGATCGAT (DNA {P}-dGdAdTdCdGdAdTdCdGdAdT) [SEQ ID NO: 10, reference compound]			did not significantly increase apoptosis	unaffected			
pGTTAGGGTTAG (DNA {P}-dGdTdTdAdGdGdGdTdTdAdG) [SEQ ID NO: 5]	neither of the oligonucleotides affected	induced extensive apoptosis	induced human T cells to undergo apoptosis	exhibit an S phase growth arrest within 24 hours	61	58±1	apoptotic cells (sub-G0/G1 DNA content) (Jurkat cells; 40 μM, 72 hours): 13%; cells in S phase (Jurkat cells; 40 μM, 72 hours): 38%; apoptotic cells (Jurkat cells; 40 μM, 96 hours): 20±3%; cells accumulated in the S phase (Jurkat cells; 40 μM, within 48 hours): 50%; activity of the two complete telomere overhang homologs (Jurkat cells; separate paired cultures): equal in activity
thymidine dinucleotide [pTpT]					45	53±1	higher concentration needed to duplicate the 11mer-1 effect on cell cycle arrest (Jurkat cells): 4 fold; apoptosis (Jurkat cells; 20 μM, even at 96 hours): No apoptosis was detected
